Test results as given in patent US11485731B2, “Compounds and methods useful in the treatment of a PRMT5-mediated disorder” (ARGONAUT THERAPEUTICS LIMITED, priority 2017, dated 2022).
pIC50: −log10 of the molar value.

Each compound was assayed against human PRMT5/MEP50 (Homo sapiens (Human), UniProt O14744) (assay: PRMT5 chemiluminescent assay). Conditions: human PRMT5/MEP50 expressed in HEK293 cells; biotinylated histone peptides; Histone H4 monomethyl R3 antibody; chemiluminescent readout.
Format: biochemical
How it was run: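 HEK293-expressed PRMT5/MEP50, diluted to 5 ng/µL in assay buffer, reacted 60 min with rotation on plate-bound biotinylated histone peptides. Product was detected with anti-histone H4 R3 monomethyl antibody (60 min), then HRP secondary (30 min) and chemiluminescent substrate. IC50 values came from the chemiluminescence signal.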

human PRMT5/MEP50, sequence (O14744 whole entry): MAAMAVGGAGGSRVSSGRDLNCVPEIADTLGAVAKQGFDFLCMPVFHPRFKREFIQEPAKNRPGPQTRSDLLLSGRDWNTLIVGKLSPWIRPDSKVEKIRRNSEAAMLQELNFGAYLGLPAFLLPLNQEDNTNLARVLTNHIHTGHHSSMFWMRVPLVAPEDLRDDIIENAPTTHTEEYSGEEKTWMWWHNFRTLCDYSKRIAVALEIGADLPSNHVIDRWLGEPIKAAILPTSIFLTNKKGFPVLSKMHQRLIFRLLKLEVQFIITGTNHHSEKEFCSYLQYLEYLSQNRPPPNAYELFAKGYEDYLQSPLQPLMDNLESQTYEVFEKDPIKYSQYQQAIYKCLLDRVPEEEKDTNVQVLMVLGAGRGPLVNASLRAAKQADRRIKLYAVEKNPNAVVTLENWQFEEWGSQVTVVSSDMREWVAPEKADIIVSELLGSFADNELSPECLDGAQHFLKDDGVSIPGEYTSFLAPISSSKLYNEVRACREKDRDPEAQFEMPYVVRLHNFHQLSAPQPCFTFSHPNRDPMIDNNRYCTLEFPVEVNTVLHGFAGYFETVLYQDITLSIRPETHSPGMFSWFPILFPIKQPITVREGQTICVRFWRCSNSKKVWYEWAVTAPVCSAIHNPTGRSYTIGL
human PRMT5/MEP50, sequence (Q9BQA1 whole entry partner): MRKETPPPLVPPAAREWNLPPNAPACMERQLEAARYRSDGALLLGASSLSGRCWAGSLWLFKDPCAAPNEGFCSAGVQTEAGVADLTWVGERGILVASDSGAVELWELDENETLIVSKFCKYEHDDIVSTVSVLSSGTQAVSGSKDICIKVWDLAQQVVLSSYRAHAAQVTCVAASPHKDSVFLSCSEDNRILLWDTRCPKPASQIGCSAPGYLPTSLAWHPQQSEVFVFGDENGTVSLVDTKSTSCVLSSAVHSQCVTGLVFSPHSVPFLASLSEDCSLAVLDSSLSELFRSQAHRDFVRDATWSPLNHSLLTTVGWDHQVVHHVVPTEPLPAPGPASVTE

SMILES	pIC50
CN(C)C(=O)C1CCN(C(=O)OC[C@H](O)CN2CCc3ccccc3C2)CC1 [Example 4O, (R)-3-(3,4-dihydroisoquinolin-2(1H)-yl)-2-hydroxypropyl 4-(dimethylcarbamoyl)piperidine-1-carboxylate]	5.57
O=C(OC[C@H](O)CN1CCc2ccccc2C1)N1CCC(C(=O)N2CCOCC2)CC1 [Example 4P, (R)-3-(3,4-dihydroisoquinolin-2(1H)-yl)-2-hydroxypropyl 4-(morpholine-4-carbonyl)piperidine-1-carboxylate]	6.65
O=C(OC[C@H](O)CN1CCc2ccccc2C1)N1CCC(C(=O)N2C3CCC2COC3)CC1 [Example 4Q, (R)-3-(3,4-dihydroisoquinolin-2(1H)-yl)-2-hydroxypropyl 4-(3-oxa-8-azabicyclo[3.2.1]octane-8-carbonyl)piperidine-1-carboxylate]	6.80
O=C(OC[C@H](O)CN1CCc2ccccc2C1)N1CCC(c2ccccn2)C1 (stereo partly drawn) [Example 4R, (R)-3-(3,4-dihydroisoquinolin-2(1H)-yl)-2-hydroxypropyl 3-(pyridin-2-yl)pyrrolidine-1-carboxylate]	7.09
CN(C)C(=O)C1CN(C(=O)OCC(O)CN2CCc3ccccc3C2)C1 (stereo not drawn) [Example 4S, 3-(3,4-dihydroisoquinolin-2(1H)-yl)-2-hydroxypropyl 3-(dimethylcarbamoyl)azetidine-1-carboxylate]	5.30
O=C(OCC(O)CN1CCc2ccccc2C1)N1CC(C(=O)N2CCOCC2)C1 (stereo not drawn) [Example 4T, 3-(3,4-dihydroisoquinolin-2(1H)-yl)-2-hydroxypropyl 3-(morpholine-4-carbonyl)azetidine-1-carboxylate]	5.73
O=C(OCC(O)CN1CCc2ccccc2C1)N1CC(C(=O)N2C3CCC2COC3)C1 (stereo not drawn) [Example 4U, 3-(3,4-dihydroisoquinolin-2(1H)-yl)-2-hydroxypropyl 3-(3-oxa-8-azabicyclo[3.2.1]octane-8-carbonyl)azetidine-1-carboxylate]	5.53
CC(=O)N1CCCN(C(=O)OCC(O)CN2CCc3ccccc3C2)CC1 (stereo not drawn) [Example 4V, 3-(3,4-dihydroisoquinolin-2(1H)-yl)-2-hydroxypropyl 4-acetyl-1,4-diazepane-1-carboxylate]	4.41
COC(=O)N1CCCN(C(=O)OCC(O)CN2CCc3ccccc3C2)CC1 (stereo not drawn) [Example 4W, 1-(3-(3,4-dihydroisoquinolin-2(1H)-yl)-2-hydroxypropyl) 4-methyl 1,4-diazepane-1,4-dicarboxylate]	4.97
O=C(OC[C@@H](O)CN1CCc2ccccc2C1)N1CCC(C(=O)N2C3CCC2COC3)CC1 [Example 4X, (S)-3-(3,4-dihydroisoquinolin-2(1H)-yl)-2-hydroxypropyl 4-(3-oxa-8-azabicyclo[3.2.1]octane-8-carbonyl)piperidine-1-carboxylate]	6.09
O=C(OCC(O)CN1CCc2sccc2C1)N1CCCc2ccccc21 (stereo not drawn) [Example 4Y, 3-(6,7-dihydrothieno[3,2-c]pyridin-5(4H)-yl)-2-hydroxypropyl 3,4-dihydroquinoline-1(2H)-carboxylate]	5.84
O=C(OCC(O)CN1CCc2ccsc2C1)N1CCCc2ccccc21 (stereo not drawn) [Example 4Z, 3-(4,7-dihydrothieno[2,3-c]pyridin-6(5H)-yl)-2-hydroxypropyl 3,4-dihydroquinoline-1(2H)-carboxylate]	6.35
O=C(NCCCN1CCc2ccccc2C1)N1CCC(c2ccccc2)C1 (stereo not drawn) [Example 6A, N-(3-(3,4-dihydroisoquinolin-2(1H)-yl)propyl)-3-phenyl pyrrolidine-1-carboxamide]	6.03
O=C(NCCCN1CCc2ccccc2C1)N1CCCC(c2ccccc2)C1 (stereo not drawn) [Example 6B, N-(3-(3,4-dihydroisoquinolin-2(1H)-yl)propyl)-3-phenylpiperidine-1-carboxamide]	5.77
O=C(OCCCN1CCc2ccccc2C1)N1CCC(c2ccccc2)C1 (stereo not drawn) [Example 7, 3-(3,4-dihydroisoquinolin-2(1H)-yl)propyl 3-phenylpyrrolidine-1-carboxylate]	6.47
